Patent publication US10632181B2, “Composition, containing RGD motif-containing peptide or fragment thereof, for treating burns and glaucoma, alleviating skin wrinkles, and promoting hair growth” (HUONS CO., LTD., priority 2014, dated 2020)
Positions of bridges follow the written chain, without caps; N, C: chain ends. No end group written: not given here.

Tests used:
Type in all cases: in vivo, Women aged 30-65
[1] = tested on: wrinkles around eyes; experiment: Wrinkle extent around eyes, skin replica, Visiometer SV600; set-up: R3 numerical value (average roughness) / R1 numerical value (skin roughness) / R4 numerical value (smoothness depth) / R5 numerical value (arithmetic average roughness): unit not given here
Experimental: The extent of wrinkles around eyes was measured using equipment. A target site to measure the wrinkle extent was regions around the eyes of the subjects, and the left side and the right side of the face were set as a measurement site. To measure the wrinkle extent, the subjects were allowed to wash the measurement site with water, and take a rest for 30 minutes in the waiting room under constant temperature and constant humidity conditions of indoor temperature 20-25° C. and humidity 40-60% to acclimate the skin surface temperature and humidity to the environment of the measurement space, and were not permitted to drink water during the rest. For objective measurement, measurements were performed by one researcher, and the same site was measured at each time of the first visit before use and the second and third visits in 2 and 4 weeks after use. Transparency profilometry analysis was performed using Visiometer SV600 (Courage-Khazaka electronic GmbH, Germany) on skin replica of the site to which test product and control product were applied before use and 2 and 4 weeks after use, and to identify if there is any difference in each of control group and experimental group after use, a change (%) in R1, R2, R4, R5 measurement values in 2 and 4 weeks after use relative to before use was analyzed.

[2] = tested on: wrinkles around eyes; experiment: Wrinkle extent around eyes by 3D imaging (PRIMOS Premium); conditions: for Rmax numerical value (maximum height of wrinkle profile) / Rp numerical value (maximum profile peak height) / Rv numerical value (maximum profile valley depth): in µm (unit assumed)
Experimental: Furthermore, the wrinkle extent was measured by 3D imaging. A target site to measure the wrinkle extent was regions around the eyes of the subjects, and the right side of the face was set as a measurement site. To measure the wrinkle extent, the subjects were allowed to wash the measurement site with water, and take a rest for 30 minutes in the waiting room under constant temperature constant humidity conditions of indoor temperature 20-25° C. and humidity 40-60% to acclimate the skin surface temperature and humidity to the environment of the measurement space, and were not permitted to drink water during the rest. For objective measurement, measurements were performed by one researcher, and the same site was measured at each time of the first visit before use and the second and third visits in 2 and 4 weeks after use. Before use and in 2 and 4 weeks after use, images of the site to which the test product (HU022 (SEQ ID NO:1)) was applied were formed using 3D skin imaging machine (PRIMOS Premium), and to verify if there is any difference in each of control group and experimental group in 4 weeks after use, wrinkle parameters, Ra, Rmax, Rt, Rp, Rv values, in the stored images of 2 weeks and 4 weeks after use relative to before use were analyzed.

[3] = tested on: wrinkles around eyes; experiment: Expert visual assessment of wrinkles (global photodamage score); conditions: for expert visual assessment score: severity 0-7
Experimental: Furthermore, visual assessment was performed. At each visit before and after use, experts assessed the wrinkle extent by scoring using global photodamage score (Br J Dermatol. 2010; 162(3):497-502). To verify if there is any difference in each of control group and experimental group in 4 weeks after use, a change (%) in visual assessment scores of 2 weeks and 4 weeks after use relative to before use was analyzed. The visual assessment scores are as follows (Table 18): […]

[4] = tested on: wrinkles around eyes; experiment: Survey of subjects about wrinkle reduction effectiveness
Experimental: Furthermore, surveying the subjects about effectiveness was conducted. The subjects were asked to personally make responses about the extent to which the subjects felt that wrinkles reduced after use of test product using 5 levels: better (4), a little bit better (3), no change (2), a little bit worse (1), worse (0). The researcher determined if test product has efficacy by calculating the percentage of the number of subjects for each response.

[5] = tested on: wrinkles around eyes; experiment: Wrinkle extent around eyes, skin replica, Visiometer SV600; set-up: R3 numerical value (average roughness): unit not given here
[6] = response 2 (fair), 4 weeks after use
[7] = response 3 (good), 4 weeks after use
[8] = response 4 (very good), 4 weeks after use

HU024 (RPTRGDCDLPEFCPG; disulfide 7-13; listed as Homo sapiens)
R1 numerical value (skin roughness) ([1]; 2 weeks after use, twice daily): 57.29 ± 3.21
R2 numerical value (maximum roughness) ([1]; 2 weeks after use, twice daily): 30.71 ± 6.57
R3 numerical value (average roughness) ([1]; 2 weeks after use, twice daily): 20.80 ± 3.97
R4 numerical value (smoothness depth) ([1]; 2 weeks after use, twice daily): 26.24 ± 2.90
R5 numerical value (arithmetic average roughness) ([1]; 2 weeks after use, twice daily): 11.58 ± 0.89
R1 numerical value (skin roughness) ([1]; 4 weeks after use, twice daily): 45.23 ± 13.77
R2 numerical value (maximum roughness) ([1]; 4 weeks after use, twice daily): 28.67 ± 7.47
R3 numerical value (average roughness) ([1]; 4 weeks after use, twice daily): 17.81 ± 4.00
R4 numerical value (smoothness depth) ([1]; 4 weeks after use, twice daily): 20.64 ± 6.07
R5 numerical value (arithmetic average roughness) ([1]; 4 weeks after use, twice daily): 8.42 ± 3.48
R1 numerical value (skin roughness) ([1]; Before use): 71.33 ± 15.86
R2 numerical value (maximum roughness) ([1]; Before use): 46.06 ± 11.62
R4 numerical value (smoothness depth) ([1]; Before use): 31.44 ± 11.04
R5 numerical value (arithmetic average roughness) ([1]; Before use): 13.52 ± 5.43
Change(%) in R1 ([1]; Before use-2 weeks after use): −19.68%
Change(%) in R4 ([1]; Before use-2 weeks after use): −16.54%
Change(%) in R5 ([1]; Before use-2 weeks after use): −14.36%
Change(%) in R1 ([1]; Before use-4 weeks after use): −36.59%
Change(%) in R3 ([1]; Before use-4 weeks after use): −54.55%
Change(%) in R4 ([1]; Before use-4 weeks after use): −34.36%
Change(%) in R5 ([1]; Before use-4 weeks after use): −37.71%
Ra numerical value (roughness average of wrinkle profile) ([2]; 2 weeks after use, twice daily): 18.33 ± 2.12
Rt numerical value (distance between highest peak and lowest valley) ([2]; 2 weeks after use, twice daily): 216.37 ± 41.76
Rmax numerical value (maximum height of wrinkle profile) ([2]; 2 weeks after use, twice daily): 198.77 ± 39.74
Rp numerical value (maximum profile peak height) ([2]; 2 weeks after use, twice daily): 155.24 ± 43.18
Rv numerical value (maximum profile valley depth) ([2]; 2 weeks after use, twice daily): 61.12 ± 8.02
Ra numerical value (roughness average of wrinkle profile) ([2]; 4 weeks after use, twice daily): 17.71 ± 2.43
Rt numerical value (distance between highest peak and lowest valley) ([2]; 4 weeks after use, twice daily): 210.60 ± 38.61
Rmax numerical value (maximum height of wrinkle profile) ([2]; 4 weeks after use, twice daily): 196.85 ± 39.02
Rp numerical value (maximum profile peak height) ([2]; 4 weeks after use, twice daily): 153.78 ± 36.12
Rv numerical value (maximum profile valley depth) ([2]; 4 weeks after use, twice daily): 56.82 ± 12.01
Ra numerical value (roughness average of wrinkle profile) ([2]; Before use): 18.64 ± 3.19
Rt numerical value (distance between highest peak and lowest valley) ([2]; Before use): 225.94 ± 45.00
Change(%) in Ra ([2]; Before use-2 weeks after use): −0.75%
Change(%) in Rmax ([2]; Before use-2 weeks after use): −3.77%
Change(%) in Rp ([2]; Before use-2 weeks after use): −3.48%
Change(%) in Rt ([2]; Before use-2 weeks after use): −4.24%
Change(%) in Rv ([2]; Before use-2 weeks after use): −6.10%
Change(%) in Ra ([2]; Before use-4 weeks after use): −4.10%
Change(%) in Rmax ([2]; Before use-4 weeks after use): −4.69%
Change(%) in Rp ([2]; Before use-4 weeks after use): −4.40%
Change(%) in Rt ([2]; Before use-4 weeks after use): −6.79%
Change(%) in Rv ([2]; Before use-4 weeks after use): −12.71%
Rmax numerical value (maximum height of wrinkle profile) ([2]; Before use): 206.55 ± 40.54
Rp numerical value (maximum profile peak height) ([2]; Before use): 160.85 ± 37.51
Rv numerical value (maximum profile valley depth) ([2]; Before use): 65.09 ± 11.95
expert visual assessment score ([3]; 2 weeks after use): 2.00 ± 0.63
expert visual assessment score ([3]; 4 weeks after use): 1.67 ± 0.82
expert visual assessment score ([3]; Before use): 2.00 ± 0.63
Change(%) in expert visual assessment score ([3]; Before use-2 weeks after use): 0%
Change(%) in expert visual assessment score ([3]; Before use-4 weeks after use): −16.67%
Number of subjects, wrinkle reduction survey ([4]; response 0 (very bad), 4 weeks after use): 0
Number of subjects, wrinkle reduction survey ([4]; response 1 (bad), 4 weeks after use): 0
Number of subjects, wrinkle reduction survey [4, 6]: 1
Percentage of subjects, wrinkle reduction survey [4, 6]: (16.7) %
Number of subjects, wrinkle reduction survey [4, 7]: 4
Percentage of subjects, wrinkle reduction survey [4, 7]: (66.7) %
Number of subjects, wrinkle reduction survey [4, 8]: 1
Percentage of subjects, wrinkle reduction survey [4, 8]: (16.7) %
Mean of wrinkle reduction survey response ([4]; scale 0-4, 4 weeks after use): 3.00
survey assessment about wrinkle reduction, test product versus control product ([4]; third visit, 4 weeks after use): test product was better at reducing wrinkles than control product
R3 numerical value (average roughness) ([5]; Before use): 29.15 ± 5.56
Change(%) in R3 ([5]; Before use-2 weeks after use): −28.66%
